Where a name gives a salt, the structure may show the parent alone.

`CCC(CC)c1nc(-c2nc(C)cs2)c(-c2ccc3ncsc3c2)[nH]1` (as salt: HCl) [Compound 62]: the melting point – broadly, the temperature of the solid-liquid transition – fell in the range of 207 to 212 °C.

In turn, `Cc1csc(-c2nc(CCCCC(=O)Nc3ccccc3)[nH]c2-c2ccc3ncsc3c2)n1` (as salt: HCl) [Compound 172] registered a melting point of 105 to 117.5 °C.

Molecule `C=CCOC(=O)NCc1nc(-c2nc(C)cs2)c(-c2ccc3ncsc3c2)[nH]1` (as salt: HCl) [Compound 192] had a melting point of 174 to 175 °C.

Turning to `CCN(CC)C(=O)OCc1nc(-c2nc(C)cs2)c(-c2ccc3ncsc3c2)[nH]1` (as salt: HCl) [Compound 237], the melting point fell in the range of 119 to 124 °C.

For the molecule `Cc1csc(-c2nc(CCCN3CCOCC3)[nH]c2-c2ccc3c(c2)OCO3)n1` (as salt: salt) [Compound 76], the melting point is 118.5 to 128.5 °C.

Molecule `NC(=O)c1ccc(-c2nc(-c3nccs3)c(-c3ccc4c(c3)OCO4)[nH]2)cc1` [Compound 2] yielded a melting point of 240 to 249 °C.

For the molecule `NC(=O)c1ccc(-c2nc(-c3nccs3)c(-c3ccccn3)[nH]2)cc1` [Compound 4], the melting point lay in the range of 255.5 to 256 °C.

Molecule `CC(O)c1nc(-c2nc(-c3ccc(C(N)=O)cc3)[nH]c2-c2ccc3c(c2)OCO3)cs1` (stereo not drawn) [Compound 6] came in with a melting point of 140 to 148 °C.

In turn, `CC(=O)c1nc(-c2nc(-c3ccc(C(N)=O)cc3)[nH]c2-c2ccc3c(c2)OCO3)cs1` [Compound 7] registered a melting point of 153 to 159 °C.

`CCc1csc(-c2nc(-c3ccc(C(N)=O)cc3)[nH]c2-c2ccc3c(c2)OCO3)n1` [Compound 11] registered a melting point of 259.5 to 261.5 °C.

`NC(=O)c1ccc(-c2nc(-c3nc(Br)cs3)c(-c3ccc4c(c3)OCO4)[nH]2)cc1` [Compound 13]: the melting point is 273 to 275.5 °C.

Consider `Cc1csc(-c2nc(-c3ccc(C#N)cc3)[nH]c2-c2ccc(F)cc2)n1` [Compound 17], for which the melting point was in the range of 283.5 to 286 °C.

For the molecule `Cc1csc(-c2nc(-c3ccc(C(N)=O)cc3)[nH]c2-c2ccc(F)cc2)n1` [Compound 18], the melting point was in the range of 281 to 281.5 °C.

In turn, `Cc1csc(-c2nc(N)[nH]c2-c2ccc3c(c2)OCO3)n1` [Compound 19] registered a melting point of 205.5 to 208 °C.

`CC(=O)Nc1nc(-c2nc(C)cs2)c(-c2ccc3c(c2)OCO3)[nH]1` [Compound 20] came in with a melting point of 169 to 173 °C.

Turning to `Cc1csc(-c2nc(NC(=O)c3ccccc3)[nH]c2-c2ccc3c(c2)OCO3)n1` [Compound 22], the melting point was in the range of 223 to 225 °C.

With `COc1ccc(CC(=O)NCc2nc(-c3nc(C)cs3)c(-c3ccc4c(c3)OCO4)[nH]2)cc1` [Compound 26], the melting point was in the range of 165.5 to 169.5 °C.

On to `Cc1csc(-c2nc(CCN)[nH]c2-c2ccc3c(c2)OCO3)n1` [Compound 27], for which the melting point was 155.5 to 157.5 °C.

`CCCC(=O)NCCc1nc(-c2nc(C)cs2)c(-c2ccc3c(c2)OCO3)[nH]1` [Compound 28] displayed a melting point of 148 to 150 °C.

For `CCCC(=O)NCCCc1nc(-c2nc(C)cs2)c(-c2ccc3c(c2)OCO3)[nH]1` [Compound 30], the melting point lay within 134.5 to 138.5 °C.

`CCCC(=O)NCCCCc1nc(-c2nc(C)cs2)c(-c2ccc3c(c2)OCO3)[nH]1` [Compound 33] gave a melting point of 132 to 133 °C.

Consider `CCCNC(=O)c1nc(-c2nc(C)cs2)c(-c2ccc3c(c2)OCO3)[nH]1` [Compound 35], for which the melting point lay in the range of 199.6 to 200 °C.

Consider `Cc1csc(-c2nc(C(=O)Nc3ccccc3)[nH]c2-c2ccc3c(c2)OCO3)n1` [Compound 36], for which the melting point fell in the range of 222 to 222.5 °C.

With `CCCNC(=O)CCc1nc(-c2nc(C)cs2)c(-c2ccc3c(c2)OCO3)[nH]1` [Compound 38], the melting point lay in the range of 106.5 to 108.5 °C.

As to `CCCNC(=O)CCCc1nc(-c2nc(C)cs2)c(-c2ccc3c(c2)OCO3)[nH]1` [Compound 40], the melting point fell in the range of 75 to 79 °C.

On to `COc1ccc(CNC(=O)CCCCc2nc(-c3nc(C)cs3)c(-c3ccc4c(c3)OCO4)[nH]2)cc1` [Compound 44], for which the melting point is 174 to 175 °C.

`Cc1csc(-c2nc(-c3ccc(C(N)=O)cc3)[nH]c2-c2ccc(O)cc2)n1` [Compound 49] gave a melting point greater than 300 °C.

Consider `CCCCCCc1nc(-c2nc(C)cs2)c(-c2ccc3ncsc3c2)[nH]1` [Compound 64], for which the melting point fell in the range of 129 to 130.5 °C.

The molecule `CCCC(=O)NCc1nc(-c2nc(C)cs2)c(-c2ccc(O)cc2)[nH]1` [Compound 101] displayed a melting point of 135.5 to 136.5 °C.

With `CCCC(=O)NCc1nc(-c2nc(C)cs2)c(-c2ccc(OC)c(OCc3ccccc3)c2)[nH]1` [Compound 104], the melting point was 176 to 177 °C.

With `Cc1csc(-c2nc(CNC(=O)CC(C)C)[nH]c2-c2ccc3ncsc3c2)n1` [Compound 107], the melting point lay within 160 to 160.5 °C.

As to `Cc1csc(-c2nc(CNC(=O)C3CCC3)[nH]c2-c2ccc3ncsc3c2)n1` [Compound 108], the melting point was in the range of 199 to 200 °C.

`Cc1csc(-c2nc(CNC(=O)C(C)(C)C)[nH]c2-c2ccc3ncsc3c2)n1` [Compound 109] showed a melting point of 229 to 229.5 °C.

`Cc1csc(-c2nc(CNC(=O)CCC(C)C)[nH]c2-c2ccc3ncsc3c2)n1` [Compound 110] showed a melting point of 172.5 to 173.5 °C.

`CCC(C)(C)C(=O)NCc1nc(-c2nc(C)cs2)c(-c2ccc3ncsc3c2)[nH]1` [Compound 111] displayed a melting point of 212.5 to 213.5 °C.

Molecule `Cc1csc(-c2nc(CNC(=O)C3CCCC3)[nH]c2-c2ccc3ncsc3c2)n1` [Compound 112] registered a melting point of 156.5 to 161 °C.

In turn, `Cc1csc(-c2nc(CNC(=O)CN(C)C)[nH]c2-c2ccc3ncsc3c2)n1` [Compound 114] gave a melting point of 211.5 to 212.5 °C.

On to `Cc1csc(-c2nc(CNC(=O)CCN(C)C)[nH]c2-c2ccc3ncsc3c2)n1` [Compound 115], for which the melting point lay within 150 to 150.5 °C.

Turning to `Cc1csc(-c2nc(CNC(=O)CCCN(C)C)[nH]c2-c2ccc3ncsc3c2)n1` [Compound 116], the melting point lay within 200.5 to 205.5 °C.

With `Cc1csc(-c2nc(CNC(=O)C3CCN(C)CC3)[nH]c2-c2ccc3ncsc3c2)n1` [Compound 117], the melting point was in the range of 204 to 205.5 °C.

On to `CNCC(=O)NCc1nc(-c2nc(C)cs2)c(-c2ccc3ncsc3c2)[nH]1` [Compound 118], for which the melting point was 200.5 to 203.5 °C.

On to `Cc1csc(-c2nc(CNC(=O)CN)[nH]c2-c2ccc3ncsc3c2)n1` [Compound 120], for which the melting point is 214.5 to 215 °C.

As for `Cc1csc(-c2nc(CNC(=O)CCO)[nH]c2-c2ccc3ncsc3c2)n1` [Compound 122], the melting point lay within 215 to 218.5 °C.

On to `COCCOCC(=O)NCc1nc(-c2nc(C)cs2)c(-c2ccc3ncsc3c2)[nH]1` [Compound 123], for which the melting point is 134 to 135.5 °C.

The molecule `COCCCC(=O)NCc1nc(-c2nc(C)cs2)c(-c2ccc3ncsc3c2)[nH]1` [Compound 125] gave a melting point of 186.5 to 190 °C.

In turn, `Cc1csc(-c2nc(CNC(=O)COCCO)[nH]c2-c2ccc3ncsc3c2)n1` [Compound 126] yielded a melting point of 193 to 194 °C.

For the molecule `COCCC(=O)NCc1nc(-c2nc(C)cs2)c(-c2ccc3ncsc3c2)[nH]1` [Compound 127], the melting point fell in the range of 154.5 to 155.5 °C.

Turning to `Cc1csc(-c2nc(CNC(=O)C3CCOC3)[nH]c2-c2ccc3ncsc3c2)n1` (stereo not drawn) [Compound 128], the melting point lay within 174 to 175 °C.

In turn, `Cc1csc(-c2nc(CNC(=O)C3CCCO3)[nH]c2-c2ccc3ncsc3c2)n1` (stereo not drawn) [Compound 130] yielded a melting point of 185 to 185.5 °C.

The molecule `CCCCNC(=O)c1nc(-c2nc(C)cs2)c(-c2ccc3ncsc3c2)[nH]1` [Compound 140] had a melting point of 209.5 to 212.5 °C.

`COC(=O)CCc1nc(-c2nc(C)cs2)c(-c2ccc3ncsc3c2)[nH]1` [Compound 142] showed a melting point of 168.5 to 170.5 °C.

In the case of `Cc1csc(-c2nc(CCC(=O)NC(C)C)[nH]c2-c2ccc3ncsc3c2)n1` [Compound 145], the melting point was in the range of 217.5 to 218 °C.

Molecule `Cc1csc(-c2nc(CCC(=O)NC3CC3)[nH]c2-c2ccc3ncsc3c2)n1` [Compound 146] returned a melting point of 196.5 to 197 °C.

`Cc1csc(-c2nc(CCC(=O)NC(C)(C)C)[nH]c2-c2ccc3ncsc3c2)n1` [Compound 147] had a melting point of 201.5 to 202 °C.

The molecule `Cc1csc(-c2nc(CCC(=O)N3CCCCC3)[nH]c2-c2ccc3ncsc3c2)n1` [Compound 148] showed a melting point of 179 to 180 °C.

Molecule `Cc1csc(-c2nc(CCC(=O)NCCN(C)C)[nH]c2-c2ccc3ncsc3c2)n1` [Compound 149] had a melting point of 163.5 to 164 °C.

Molecule `Cc1csc(-c2nc(CCC(=O)NCCCN(C)C)[nH]c2-c2ccc3ncsc3c2)n1` [Compound 150] showed a melting point of 78.5 to 82.5 °C.

Turning to `Cc1csc(-c2nc(CCC(=O)NCCN3CCCCC3)[nH]c2-c2ccc3ncsc3c2)n1` [Compound 151], the melting point lay within 114 to 119 °C.

For the molecule `Cc1csc(-c2nc(CCC(=O)NCCN3CCCC3)[nH]c2-c2ccc3ncsc3c2)n1` [Compound 152], the melting point lay within 171 to 173 °C.

Molecule `Cc1csc(-c2nc(CCC(=O)NCCCN3CCN(C)CC3)[nH]c2-c2ccc3ncsc3c2)n1` [Compound 153] had a melting point of 188 to 189 °C.

Consider `Cc1csc(-c2nc(CCC(=O)N3CCN(C)CC3)[nH]c2-c2ccc3ncsc3c2)n1` [Compound 155], for which the melting point lay in the range of 201 to 201.5 °C.

As to `Cc1csc(-c2nc(CCC(=O)N3CCN(CCN4CCOCC4)CC3)[nH]c2-c2ccc3ncsc3c2)n1` [Compound 157], the melting point was in the range of 164.5 to 166 °C.

In the case of `Cc1csc(-c2nc(CCC(=O)N3CCN(CCN(C)C)CC3)[nH]c2-c2ccc3ncsc3c2)n1` [Compound 158], the melting point lay in the range of 169.5 to 172 °C.

Turning to `Cc1csc(-c2nc(CCC(=O)N3CCOCC3)[nH]c2-c2ccc3c(c2)OCO3)n1` [Compound 161], the melting point lay in the range of 216.5 to 218 °C.

As to `COCCCNC(=O)CCc1nc(-c2nc(C)cs2)c(-c2ccc3ncsc3c2)[nH]1` [Compound 164], the melting point lay in the range of 144.5 to 145 °C.

`COc1ccc(CNC(=O)CCCCc2nc(-c3nc(C)cs3)c(-c3ccc4ncsc4c3)[nH]2)cc1` [Compound 173]: the melting point fell in the range of 140 to 140.5 °C.

The values are drawn from patent publication US7678810B2, “Thiazole derivative” (Taisho Pharmaceutical Co., Ltd, priority 2004, dated 2010).
